Assay results from PubChem BioAssay (NCI).
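Tested at 5 concentrations; 48 h exposure; 96-well plates; endpoints linearly interpolated, else capped at highest concentration. GI50 marks 50% less growth. TGI: total growth inhibition.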

Key:
Experiment in all cases: growth of human tumour cells (NCI), 48 h
A498 renal = tested on: A498 renal
A549 NSCLC = tested on: A549 NSCLC
CCRF-CEM leukemia = tested on: CCRF-CEM leukemia
MDA-N = tested on: MDA-N
OVCAR-3 ovarian = tested on: OVCAR-3 ovarian
RXF 393 renal = tested on: RXF 393 renal
SK-MEL-2 melanoma = tested on: SK-MEL-2 melanoma
SNB-19 CNS = tested on: SNB-19 CNS
T-47D breast = tested on: T-47D breast
U251 CNS = tested on: U251 CNS

SMILES	TGI (A498 renal)	TGI (A549 NSCLC)	TGI (CCRF-CEM leukemia)	TGI (MDA-N)	TGI (OVCAR-3 ovarian)	TGI (RXF 393 renal)	TGI (SK-MEL-2 melanoma)	TGI (SNB-19 CNS)	TGI (T-47D breast)	TGI (U251 CNS)	GI50 (A498 renal)	GI50 (A549 NSCLC)	GI50 (CCRF-CEM leukemia)	GI50 (OVCAR-3 ovarian)	GI50 (RXF 393 renal)	GI50 (SK-MEL-2 melanoma)	GI50 (SNB-19 CNS)	GI50 (T-47D breast)	GI50 (U251 CNS)
C=c1c2ccccc2oc2nc3[nH]c(N)c(C#N)c(N)c3c(=N)c12	> 100 µM	> 100 µM	> 100 µM	> 100 µM	43.3 µM	> 100 µM	37.8 µM	> 100 µM	> 100 µM	> 100 µM	–	–	–	–	–	–	–	–	–
O=C(/C=C/c1cc2ccccc2[nH]c1=O)c1ccc(O)cc1	21.3 µM	11.8 µM	> 100 µM	–	11.8 µM	3.23 µM	13.6 µM	18 µM	20.4 µM	10.9 µM	8.44 µM	2.73 µM	2.38 µM	3.22 µM	1.65 µM	4.13 µM	4.59 µM	4.19 µM	2.6 µM
O=C(Cn1cc(I)c(C(=O)NCC(O)CO)n1)NCC(O)CO (centres undefined)	> 100 µM	> 100 µM	> 100 µM	–	> 100 µM	> 100 µM	> 100 µM	> 100 µM	–	> 100 µM	–	–	–	–	–	–	–	–	–
CSCCC(NOC(=O)Cc1ccccc1)P(=O)(O)c1ccccc1 (centres undefined)	–	> 100 µM	> 100 µM	> 100 µM	> 100 µM	–	> 100 µM	> 100 µM	> 100 µM	> 100 µM	–	–	–	–	–	–	–	–	–
COc1ccc(CNCCN2C(=O)c3ccc4c5c(ccc(c35)C2=O)C(=O)N(CCNCc2ccc(OC)c(OC)c2OC)C4=O)c(OC)c1OC	–	–	50 µM	–	0.353 µM	1.42 µM	–	4.13 µM	–	–	–	–	0.273 µM	0.121 µM	0.279 µM	–	0.429 µM	–	–
COc1ccc(/C=N/NC(=O)NCCNCCO)cc1	> 100 µM	> 100 µM	> 100 µM	–	> 100 µM	> 100 µM	> 100 µM	–	–	> 100 µM	–	–	–	–	–	–	–	–	–
CN(C)c1ccc(/C=C(\C#N)C(=O)c2ccccc2)cc1Br	–	> 100 µM	> 100 µM	–	> 100 µM	29.6 µM	> 100 µM	> 100 µM	–	> 100 µM	–	–	–	–	–	–	–	–	–
CCc1cc2c(cc1O)CC[C@@H]1[C@@H]2CC[C@]2(C)[C@@H](O)CC[C@@H]12	34.6 µM	21.3 µM	15 µM	8.62 µM	11.5 µM	–	25 µM	19 µM	32.9 µM	16.7 µM	–	–	–	2.94 µM	–	–	–	–	–
N#Cc1ccccc1C#C/C=C\C#Cc1ccccn1	–	56.5 µM	> 100 µM	–	19.2 µM	33.1 µM	33.3 µM	69.3 µM	62.5 µM	38.3 µM	–	–	–	–	–	–	–	–	–
CCOC1=C2N=C(C(CC)c3ccc(F)cc3)N=C2C(=O)c2ccccc21 (centres undefined)	–	> 85.8 µM	> 100 µM	–	> 91.1 µM	39.5 µM	39.5 µM	> 100 µM	–	53.5 µM	–	–	–	–	–	–	–	–	–
Cc1cc2nc3c(C)c4ccccc4c(C)n3c2cc1C	–	> 10 µM	> 10 µM	7.8 µM	7.8 µM	8.66 µM	> 10 µM	> 10 µM	> 10 µM	> 10 µM	–	–	–	–	–	–	–	–	–
CC(C)C(C=O)C(O)(C(F)(F)F)C(F)(F)F (centres undefined)	> 100 µM	> 100 µM	–	> 100 µM	> 100 µM	> 100 µM	> 100 µM	> 100 µM	> 100 µM	> 100 µM	–	–	–	–	–	–	–	–	–
CCCC(CCC(=O)O)(CCC(=O)O)[N+](=O)[O-]	–	> 100 µM	–	> 100 µM	–	> 100 µM	> 100 µM	> 100 µM	> 100 µM	> 100 µM	–	–	–	–	–	–	–	–	–
C=C1C(=O)OC2C=C(C)CC3C=C(CCC=C(C)CCC12)C(=O)O3 (centres undefined)	167 µM	203 µM	104 µM	–	116 µM	82.3 µM	101 µM	271 µM	–	121 µM	–	–	–	–	–	–	–	–	–
C#CCN1C(=O)CN2C(Cl)(Cl)C2(c2ccccc2)c2cc(Cl)ccc21 (centres undefined)	–	–	> 100 µM	–	> 100 µM	> 100 µM	> 100 µM	–	–	–	–	–	–	–	–	–	–	–	–
CC(C)c1cccc(C(C)C)c1NC(=O)/C(Cc1nc2ccc(Cl)cc2[nH]c1=O)=N\NC(=O)C[N+](C)(C)C	> 100 µM	> 100 µM	> 100 µM	–	> 100 µM	> 100 µM	> 100 µM	> 100 µM	–	–	–	–	–	–	–	–	–	–	–
COc1cc(/C=[N+](\[O-])c2ccccc2Cl)ccc1OC(=S)S	> 100 µM	> 100 µM	–	> 100 µM	> 100 µM	89.3 µM	> 100 µM	> 100 µM	53.4 µM	> 100 µM	–	–	–	–	–	–	–	–	–
O=C1C(Nc2ccc(S(=O)(=O)Nc3cnc4ccccc4n3)cc2)=CC(=Nc2ccc(S(=O)(=O)Nc3cnc4ccccc4n3)cc2)c2ccccc21	30.3 µM	38 µM	57 µM	34.8 µM	47.6 µM	32.3 µM	36.3 µM	29 µM	–	34 µM	–	–	–	–	–	–	–	–	–
COC(=O)[C@@]1(Cc2ccc(OC(C)=O)cc2)Cc2cc3ccccc3n2N1	87.3 µM	> 100 µM	> 100 µM	77.6 µM	> 100 µM	–	52.2 µM	> 100 µM	> 100 µM	> 100 µM	–	–	–	–	–	–	–	–	–
O=C(N/N=C/c1ccc(O)cc1)NNCCO	> 100 µM	> 100 µM	> 100 µM	> 100 µM	> 100 µM	–	> 100 µM	> 100 µM	> 100 µM	> 100 µM	–	–	–	–	–	–	–	–	–
CC(C)C(N=C1CC2CCC1(C(=O)Nc1ccccc1O)C2(C)C)c1ccccc1 (centres undefined)	> 10 µM	> 10 µM	> 10 µM	–	> 10 µM	–	> 10 µM	> 10 µM	–	> 10 µM	–	–	–	–	–	–	–	–	–
N#Cc1cc([N+](=O)[O-])ccc1NC(=O)C(=O)Nn1c(=S)[nH]c2ccccc2c1=O	> 100 µM	> 100 µM	> 100 µM	–	> 100 µM	> 100 µM	–	> 100 µM	–	> 100 µM	–	–	–	–	–	–	–	–	–
Cn1cnc([N+](=O)[O-])c1Sc1nnc(-c2ccc(Cl)cc2)n1C	81.8 µM	> 100 µM	22 µM	–	26.9 µM	17 µM	34.8 µM	> 100 µM	–	30.4 µM	–	–	–	–	–	–	–	–	–
COC(=O)C12CCC(CC1=O)C2(C)C (centres undefined)	> 100 µM	> 100 µM	–	–	> 100 µM	> 100 µM	–	> 100 µM	–	> 100 µM	–	–	–	–	–	–	–	–	–
